Data published in patent publication US20020045638A1, “Method of treating estrogen receptor positive carcinoma” (priority 2000, published 2002).
Like-named read-outs stand apart in the source and are kept apart here.

Key:
[1] = tested on: MCF-7 human breast cancer cells; assay: Inhibition of growth of MCF-7 breast cancer cells (MTT), with MacSynergy II synergy analysis; conditions: for inhibition at 0.1 µM / inhibition at 0.2 µM / inhibition at 0.4 µM / inhibition at 0.005 µM / inhibition at 0.01 µM / inhibition at 0.05 µM: Homo sapiens, MCF7, read-out: Percent Inhibition, Table E;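 on all read-outs here: cells treated five or six days with single agents or combinations, growth read by MTT, synergy surface equals observed % inhibition minus Bliss additive prediction, values under 0% signal antagonism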
Protocol: MCF-7 human breast cancer cells were maintained at 37° C. in a humidified atmosphere of 5% CO2 and 95% air in IMEM medium supplemented with 10% fetal bovine serum. […] One day before the experiment, cells were plated in 96-well plates at a cell density of 2,500 cells/well in IMEM medium supplemented with 10% fetal bovine serum. The next day, cells were treated with various concentrations of antiestrogen and rapamycin 42-ester with 3-hydroxy-2-(hydroxymethyl)-2-methylpropionic acid (referred to as CCI-779 in the tables below). Five or six-days later, cell growth was monitored. MTT solution (20 ul) (0.5 mg/ml) was added to each well and cells were incubated for an additional 4 h. The solution was then removed and 150 ul of DMSO added. The intensity of dark blue color corresponding to number of cells was read at 540 nm with an automated plate reader.
Briefly, theoretical additive interactions were calculated from the dose-response curves of each individual drug based on Bliss independence model. The calculated additive surface was then subtracted from the experimental surface to obtain a synergy surface representing % inhibition above the calculated additive value-synergy index. […] Likewise, any peak below the 0% plane is indicative of antagonism.

[2] = tested on: BG-1 human ovarian cancer cells; assay: Inhibition of growth of BG-1 ovarian cancer cells (MTT), with MacSynergy II synergy analysis; type: cell-based; conditions: for inhibition at 0.005 µM / inhibition at 0.01 µM / inhibition at 0.05 µM / inhibition at 0.1 µM / inhibition at 0.2 µM / inhibition at 0.4 µM: Homo sapiens, read-out: Percent Inhibition; for Percent Inhibition: Table G, ERA-923 0 nM
Protocol: In these test procedures, rapamycin 42-ester with 3-hydroxy-2-(hydroxymethyl)-2-methylpropionic acid was used as a representative rapamycin, and 2-(4-hydroxy-phenyl)-3-methyl-1-[4-(2-piperdin-1-yl-ethoxy)-benzyl-1 H-indol-5-ol, raloxifene, and 4-hydroxytamoxifen were used as representative antiestrogens.
One day before the experiment, cells were plated in 96-well plates at a cell density of 2,500 cells/well in IMEM medium supplemented with 10% fetal bovine serum. The next day, cells were treated with various concentrations of antiestrogen and rapamycin 42-ester with 3-hydroxy-2-(hydroxymethyl)-2-methylpropionic acid (referred to as CCI-779 in the tables below). Five or six-days later, cell growth was monitored.

Compound: CO[C@H]1C[C@@H]2CC[C@@H](C)[C@@](O)(O2)C(=O)C(=O)N2CCCC[C@H]2C(=O)O[C@H]([C@H](C)C[C@@H]2CC[C@@H](OC(=O)C(C)(CO)CO)[C@H](OC)C2)CC(=O)[C@H](C)/C=C(\C)[C@@H](O)[C@@H](OC)C(=O)[C@H](C)C[C@H](C)/C=C/C=C/C=C/1C [CCI-779, rapamycin 42-ester with 3-hydroxy-2-(hydroxymethyl)-2-methylpropionic acid]
- inhibition at 0.1 µM ([1]; CCI-779 100 nM + CCI-779 100 nM): 55%
- inhibition at 0.2 µM ([1]; CCI-779 100 nM + CCI-779 200 nM): 62.5%
- inhibition at 0.4 µM ([1]; CCI-779 100 nM + CCI-779 400 nM): 66.8%
- inhibition at 0.005 µM ([1]; CCI-779 200 nM + CCI-779 5 nM): 51.4%
- inhibition at 0.01 µM ([1]; CCI-779 200 nM + CCI-779 10 nM): 57.1%
- inhibition at 0.05 µM ([1]; CCI-779 200 nM + CCI-779 50 nM): 57.2%
- inhibition at 0.1 µM ([1]; CCI-779 200 nM + CCI-779 100 nM): 59%
- inhibition at 0.2 µM ([1]; CCI-779 200 nM + CCI-779 200 nM): 65.5%
- inhibition at 0.4 µM ([1]; CCI-779 200 nM + CCI-779 400 nM): 66.8%
- inhibition at 0.005 µM ([1]; CCI-779 400 nM + CCI-779 5 nM): 61.1%
- inhibition at 0.01 µM ([1]; CCI-779 400 nM + CCI-779 10 nM): 61.1%
- inhibition at 0.05 µM ([1]; CCI-779 400 nM + CCI-779 50 nM): 60%
- inhibition at 0.1 µM ([1]; CCI-779 400 nM + CCI-779 100 nM): 62%
- inhibition at 0.2 µM ([1]; CCI-779 400 nM + CCI-779 200 nM): 66.3%
- inhibition at 0.4 µM ([1]; CCI-779 400 nM + CCI-779 400 nM): 69.7%
- concentrations at which synergy was more pronounced ([1]; MCF-7, ERA-923 in combination with CCI-779 (Table A)): 300 to 400 nM
- Percent Inhibition ([1]; Table A, CCI-779 5 nM, ERA-923 0 nM): −13.25%
- Percent Inhibition ([1]; Table A, CCI-779 10 nM, ERA-923 0 nM): −1.54%
- Percent Inhibition ([1]; Table A, CCI-779 50 nM, ERA-923 0 nM): 26.68%
- Percent Inhibition ([1]; Table A, CCI-779 100 nM, ERA-923 0 nM): 37.93%
- Percent Inhibition ([1]; Table A, CCI-779 200 nM, ERA-923 0 nM): 34.99%
- Percent Inhibition ([1]; Table A, CCI-779 400 nM, ERA-923 0 nM): 39.43%
- Percent Inhibition ([1]; Table E, CCI-779 5 nM + CCI-779 0 nM): 0.59%
- Percent Inhibition ([1]; Table E, CCI-779 10 nM + CCI-779 0 nM): 4.91%
- Percent Inhibition ([1]; Table E, CCI-779 50 nM + CCI-779 0 nM): 36.55%
- Percent Inhibition ([1]; Table E, CCI-779 100 nM + CCI-779 0 nM): 42.35%
- Percent Inhibition ([1]; Table E, CCI-779 200 nM + CCI-779 0 nM): 45.87%
- Percent Inhibition ([1]; Table E, CCI-779 400 nM + CCI-779 0 nM): 55.78%
- inhibition at 0.005 µM ([2]; Table H, CCI-779 5 nM, 4-Hydroxytamoxifen 0 nM): 21.4%
- inhibition at 0.01 µM ([2]; Table H, CCI-779 10 nM, 4-Hydroxytamoxifen 0 nM): 24.9%
- inhibition at 0.05 µM ([2]; Table H, CCI-779 50 nM, 4-Hydroxytamoxifen 0 nM): 56.3%
- inhibition at 0.1 µM ([2]; Table H, CCI-779 100 nM, 4-Hydroxytamoxifen 0 nM): 56.4%
- inhibition at 0.2 µM ([2]; Table H, CCI-779 200 nM, 4-Hydroxytamoxifen 0 nM): 60.7%
- inhibition at 0.4 µM ([2]; Table H, CCI-779 400 nM, 4-Hydroxytamoxifen 0 nM): 64.9%
- inhibition at 0.005 µM ([2]; Table I, CCI-779 5 nM, Raloxifene 0 nM): 8.26%
- inhibition at 0.01 µM ([2]; Table I, CCI-779 10 nM, Raloxifene 0 nM): 12.5%
- inhibition at 0.05 µM ([2]; Table I, CCI-779 50 nM, Raloxifene 0 nM): 37.7%
- inhibition at 0.1 µM ([2]; Table I, CCI-779 100 nM, Raloxifene 0 nM): 42.1%
- inhibition at 0.2 µM ([2]; Table I, CCI-779 200 nM, Raloxifene 0 nM): 48.4%
- inhibition at 0.4 µM ([2]; Table I, CCI-779 400 nM, Raloxifene 0 nM): 53%
- Percent Inhibition ([2]; CCI-779 5 nM): 19.98%
- Percent Inhibition ([2]; CCI-779 10 nM): 22.68%
- Percent Inhibition ([2]; CCI-779 50 nM): 49.76%
- Percent Inhibition ([2]; CCI-779 100 nM): 58.79%
- Percent Inhibition ([2]; CCI-779 200 nM): 55.65%
- Percent Inhibition ([2]; CCI-779 400 nM): 61.94%
